Results published in article PMC10326435, “Antiprotozoal activity of natural products from Nigerien plants used in folk medicine” (Frontiers in Pharmacology, 2023).
Like-named read-outs stand apart in the source and are kept apart here.

Columns and labels:
[1] = system: P. falciparum (NF54, intraerythrocytic); experiment: in vitro activity on P. falciparum, serial dilution assay; type: cell-based, Plasmodium falciparum; details: for IC50: 72 h exposure, means of two independent assays ± deviation from the mean, read-out: IC50 P. falciparum; for Selectivity index (SI) P. falciparum: SI = IC50 cytotoxicity (L6)/IC50 in P. falciparum
Protocol: (§1) The in vitro activity was assessed on T. b. rhodesiense (STIB900, trypomastigotes), T. cruzi (Tulahuen C2C4, intracellular amastigotes), L. donovani (MHOM-ET-67/L82, axenically grown amastigotes), P. falciparum (NF54, intraerythrocytic), and L6 cells (ATCC, CRL-1458™, rat skeletal myoblasts) as previously described ([Bernal et al., 2020]). The activities were determined in serial dilution assays with 72 h compound exposure, respectively 96 h for intracellular T. cruzi. Results are expressed in µg/mL for extracts and in µM for pure compounds. The IC50 values were determined for the compounds only when they were <50 µM.

[2] = system: T. b. rhodesiense (STIB900, trypomastigotes); experiment: in vitro activity on T. b. rhodesiense, serial dilution assay; type: cell-based, Trypanosoma brucei rhodesiense; details: for Selectivity index (SI) T. b. rhodesiense: SI = IC50 cytotoxicity (L6)/IC50 in T. b. rhodesiense; for IC50: 72 h exposure, means of two independent assays ± deviation from the mean, read-out: IC50 T. b. rhodesiense
Protocol: as §1

[3] = system: L. donovani (MHOM-ET-67/L82, axenically grown amastigotes); experiment: in vitro activity on L. donovani, serial dilution assay; type: cell-based, Leishmania donovani; details: for IC50: axenic amastigotes, 72 h exposure, means of two independent assays ± deviation from the mean, read-out: IC50 L. donovani; for Selectivity index (SI) L. donovani: SI = IC50 cytotoxicity (L6)/IC50 in L. donovani
Protocol: as §1

cytotoxicity in L6 cells = type: cell-based, rat; details: rat
Protocol: as §1

[4] = system: T. cruzi (Tulahuen C2C4, intracellular amastigotes); experiment: in vitro activity on T. cruzi, serial dilution assay; type: cell-based, Trypanosoma cruzi; details: for Selectivity index (SI) T. cruzi: SI = IC50 cytotoxicity (L6)/IC50 in T. cruzi; for IC50: 96 h exposure, means of two independent assays ± deviation from the mean, read-out: IC50 T. cruzi
Protocol: as §1

P. falciparum = details: cited from earlier work
T. b. rhodesiense = details: previously reported; ref Cretton et al., 2015; read-out: IC50 against T. b. rhodesiense; cited from earlier work
Leishmania spp. = system: Leishmania spp.; design: method as in Rocha et al., 2022; details: no significant activity; ref Rocha et al., 2022; read-out: IC50 against Leishmania spp.; cited from earlier work
T. cruzi = details: read-out: IC50 against T. cruzi, cited from earlier work
[5] = system: intracellular L. donovani amastigotes in mouse macrophages; experiment: intracellular L. donovani amastigotes in mouse macrophages; type: cell-based, Leishmania donovani; details: not active, read-out: IC50 against intracellular L. donovani amastigotes
Description: The antiparasitic activity of myricitrin (1) and quercitrin (2) was already described in the literature ([Muzitano et al., 2006]; [Larit et al., 2021]), and therefore it was not evaluated in the present study. Compound 3 was the only compound evaluated from the extract of C. sieberiana and was compared to the activity of miltefosine due to structural similarities. […] Among the cyclopeptide alkaloids isolated from the DCM extract of Z. mauritiana (4, 5, 7–12), a methoxy group at C-13 (10–12) seems to be favorable for the antiplasmodial activity. In addition, the indole group at C-29 present in compounds 9 and 12 seems to be important for the activity against T. b. rhodesiense. […] This is the first report on the antileishmanial and antitrypanosomal activities of these compounds. […] This is in agreement with our study. Among the triterpene derivatives isolated from the DCM root bark extract of Z. mauritiana (6, 13–19), betulinic acid (19), an already well-studied compound, was not tested in this work. […] The triterpenoids tested in the present work (Table 3) were mainly active against L. donovani and presented a good selectivity index. The substitution with an epoxy group in compound 13 compared to compound 6 enhanced the activity toward L. donovani and P. falciparum but not against T. cruzi. […]

[6] = system: L6 cells (ATCC, CRL-1458, rat skeletal myoblasts); experiment: cytotoxicity in L6 cells; type: cell-based; details: rat, 72 h
Protocol: as §1

L. amazonensis = system: L. amazonensis; design: method as in Costa et al., 2018; details: ref Costa et al., 2018; read-out: IC50 against L. amazonensis; cited from earlier work
[7] = Plasmodium falciparum, NF54, 72 h
[8] = Trypanosoma cruzi, TULAHUEN, 96 h
[9] = already reported, ref Suksamrarn et al., 2006, Panseeta et al., 2011, Tuenter et al., 2017, read-out: antiplasmodial activity IC50
[10] = L6 cells (rat skeletal myoblasts, ATCC CRL-1458), rat skeletal myoblast (L6 cells), 72 h exposure, means of two independent assays ± deviation from the mean, read-out: IC50 Cytotoxicity

Row | Structure (SMILES) | IC50 [1, 7] [µM] | Selectivity index (SI) P. falciparum [1] | Selectivity index (SI) T. b. rhodesiense [2] | IC50 ([2]; Trypanosoma brucei, 72 h) [µM] | IC50 ([3]; Leishmania donovani, 72 h) [µM] | IC50 at 72 h (cytotoxicity in L6 cells; IC50 Cytotoxicity) [µM] | Selectivity index (SI) T. cruzi [4] | IC50 [4, 8] [µM] | IC50 (P. falciparum; [9]) [µM] | Selectivity index (SI) L. donovani [3] | further results
1 | CCC(C)[C@@H]1NC(=O)[C@@H]2[C@H](CCN2C(=O)[C@H](Cc2c[nH]c3ccccc23)NC(=O)[C@H](CC(C)C)NC)Oc2ccc(OC)c(c2)/C=C\NC1=O (stereo partly shown) [Compound 12, mauritine M] | 2.6 ± 0.2 | 12.2 | 5.0 | 6.4 ± 2 | > 50 | 31.8 ± 7.6 | 2.0 | 15.7 ± 1.1 | 3.7 |  | 
2 | C=C(C)[C@@H]1CC[C@]2(C(=O)O)CC[C@]3(C)[C@H](CC[C@@H]4[C@@]5(C)CC[C@H](O)C(C)(C)[C@@H]5CC[C@]43C)[C@@H]12 [Compound 19, betulinic acid] |  |  |  |  |  |  |  |  |  |  | IC50 (T. b. rhodesiense): 4.2 µM; IC50 (Leishmania spp.): > 25 µM; IC50 (P. falciparum; previously reported, ref Cretton et al., 2015, read-out: IC50 against P. falciparum): 19 µM; IC50 (T. cruzi; no significant activity, ref Rocha et al., 2022): > 25 µM
3 | CN[C@@H](C)C(=O)N[C@H](C(=O)N1CC[C@@H]2Oc3ccc(cc3)/C=C\NC(=O)[C@H](Cc3ccccc3)NC(=O)[C@H]21)C(C)C [Compound 4, mauritine F] | 24.3 ± 4.5 | > 5.5 |  | > 50 | > 50 | > 50 |  | > 50 | 34.2 |  | 
4 | CC(C)=CCC1=C(O)C(=O)c2c(O)ccc(O)c2C1=O [Compound 20] | 45 ± 4.6 | 0.3 | 2.0 | 6.9 ± 1.3 | 1.9 ± 0.4 |  | 0.5 | 27.4 ± 1.3 |  | 7.4 | IC50 at 72 h (cytotoxicity in L6 cells; [10]): 14 ± 0.4 µM; IC50 (P. falciparum; previously evaluated, ref Kopa et al., 2014, read-out: antiplasmodial activity IC50): 3 µM
5 | CN[C@H](C)C(=O)N[C@H](C(=O)N1CC[C@@H]2Oc3ccc(OC)c(c3)/C=C\NC(=O)[C@H](Cc3ccccc3)NC(=O)[C@H]21)C(C)C [Compound 11, N-demethylamphibine H] | 14.7 ± 4.2 | > 5.4 |  | > 50 | 44.8 ± 3.4 | > 50 |  | > 50 | 3.6 | > 1.5 | 
6 | C=C(C)C1CCC2(C(=O)O)CCC3(C)C(CCC4C5(C)C(C(=O)O)C(OC(=O)c6ccccc6)C(C)(C)C5CCC43C)C12 [Compound 15, (1R, 3S)-3-O-benzoyl ceanothic acid] | 10.1 ± 0.6 | 1.6 | 1.4 |  |  | 16.4 ± 5.8 | 0.4 | 43.8 ± 8.4 |  | 32.8 | IC50 [2]: 11.7 ± 1 µM; IC50 ([5]; Leishmania donovani, Macrophage): > 50 µM; IC50 [3]: 0.5 ± 0.2 µM
7 | C=C(C)C1CCC2(C(=O)O)CCC3(C)C(CCC4C5(C)C(C(=O)O)C(OC(=O)c6ccccc6)C(C)(C)C5CCC43C)C12 [Compound 16, (1S, 3S)-3-O-benzoyl ceanothic acid] |  | 2.1 | 1.1 |  |  |  |  |  |  | 17.9 | IC50 [1]: 15.3 ± 1.5 µM; IC50 [2]: 30.6 ± 2.8 µM; IC50 [5]: > 50 µM; IC50 [3]: 1.8 ± 0.7 µM; IC50 [6]: 32.3 ± 5.1 µM; IC50 [4]: > 50 µM
8 | C=C(C)[C@@H]1CC[C@]2(C(=O)O)CC[C@]3(C)[C@H](CC[C@@H]4[C@@]5(C)[C@@H](C(=O)O)[C@H](O)C(C)(C)[C@@H]5CC[C@]43C)[C@@H]12 [Compound 6, ceanothic acid] | > 50 |  |  | > 50 | 29 ± 3.3 | > 50 |  | > 50 | > 20 | > 1.7 | 
9 | CC1(C)C=CC2=C(O1)C(=O)c1c(O)ccc(O[C@@H]3O[C@H](CO)[C@@H](O)[C@H](O)[C@H]3O)c1C2=O [Compound 29] | > 50 |  | 3.2 | 12.5 ± 1.6 | 11.4 ± 2.3 |  |  | > 50 |  | 3.5 | IC50 (L. amazonensis): 12.6 µM; IC50 at 72 h (cytotoxicity in L6 cells; [10]): 40.3 ± 0.7 µM; IC50 (T. cruzi; ref Costa et al., 2018): 7.6 µM
